Experimental data published in patent US20250032489A1, “MIXED LINEAGE KINASE INHIBITORS AND METHODS OF USE” (The U.S.A., as represented by the Secretary, Department of …, priority 2022, published 2025).
Read-outs that look alike come from different tables or passages of the source. Where a SMILES comes first, the peptide text is derived from it. The star is where a group is joined. Cbz = O=C(OCc1ccccc1)*

Columns and labels:
[1] = PAMPA (parallel artificial membrane permeability assay); format: in vitro ADME
Experimental: (§1) Substituents were varied to improve binding affinity to LZK and selectivity over DLK. KD values were measured by Eurofins DiscoveRx using the Kd-Elect system. Parallel artificial membrane permeability assay (PAMPA) values were measured by Cyprotex.

c-MYC = assay: Western blot of c-MYC abundance; format: cell-based; conditions: CAL33 and BICR56 cells depleted of LZK for 48 hours, 10 μM for six hours
Experimental: Generally, cells were plated in six-well or 35-mm plates for 24 hours, after which doxycycline was added or treatment with specific inhibitor was administered using 5% FBS media for 48 hours. After appropriate treatment time, cells were washed with ice-cold phosphate-buffered saline without Ca and Mg (Quality Biological) and then lysed on ice with RIPA buffer ([…], 1.0% IGEPAL® CA-630, 0.5% sodium deoxycholate, 0.1% SDS, 50 mM Tris, pH 8.0) (Sigma-Aldrich) supplemented with protease inhibitor tablet (Sigma-Aldrich) and phosphatase inhibitor cocktails 2 and 3 (Sigma-Aldrich) followed by centrifugation at 15,000 rpm for 10 minutes at 4° C. Protein concentrations were determined from the cell lysate by using 660 nm Protein Assay Reagent (Pierce). Cell extracts were denatured, subjected to SDS-PAGE, transferred to PVDF membranes (Bio-Rad) and blocked for 2 hours using 5% bovine serum albumin (BSA) in phosphate-buffered saline and 0.1% Tween® 20 (PBS-T). The membranes were incubated with the specific antibodies overnight in 5% BSA/PBST at 4° C. followed by a 1 hour incubation with the appropriate horseradish peroxidase-conjugated secondary antibodies and signal was detected by chemiluminescence (Thermo Fisher).

LZK [2] = target: T1, LZK (Homo sapiens (Human), UniProt O43283); assay: KD determination, Eurofins DiscoveRx Kd-Elect; format: binding
Experimental: as §1
(§2) KD values were calculated with a standard dose-response curve using the Hill equation: […]
(§3) The Hill Slope was set to −1. Curves were fitted using a non-linear least square fit with the Levenberg-Marquardt algorithm.

LZK [3] = target: T1, LZK; assay: Phospho-JNK ELISA in doxycycline-induced CAL33 cells expressing LZK; format: cell-based; conditions: for Phospho-JNK levels: 1 μM LZK inhibitor, 1 hour, compared to GNE-3511 control
Text: The ViraPower HiPerform T-REx Gateway Expression System (Invitrogen) was used to generate cells with tetracycline-inducible expression of LZK. In brief, wild-type (WT) or drug-resistant mutant (Q240S) LZK (cloned into pLenti6.3/TO/V5-DEST vector) and pLenti3.3/TR (for tetracycline repressor expression) were transfected into 293FT cells using Lipofectamine 2000 to generate lentiviral stock. Cell lines were generated by antibiotic selection (blasticidin [Gibco] and geneticin [Gibco]). Doxycycline (Sigma-Aldrich) was used at 1 μg/mL to induce LZK expression.
A PathScan® Phospho-SAPK/JNK (Thr183/Tyr185) Sandwich ELISA Assay (Cell Signaling Technology) was used for ELISA assays following the manufacturer's protocol. In general, 500,000 cells were plated and treated with doxycycline the following day where appropriate and incubated at 37° C. for 48 hours. Cells were treated with the drug compound or control in 5% FBS media for 1 hour. After appropriate treatment time, cells were lysed on ice with 1× Cell Lysis Buffer (Cell Signaling Technology) supplemented with phosphatase and protease inhibitors (Sigma). Each diluted cell lysate was added to Phospho-SAPK/JNK (Thr183/Tyr185)Rabbit mAb Coated microwells in triplicate and incubated overnight at 4° C. Samples were treated with the following antibodies and incubated at 37° C. for 1 hour and 30 minutes, respectively: Detection Antibody and HRP-Linked secondary antibody. Samples were washed between treatments using 1× Wash Buffer according to the manufacturer's protocol. TMB substrate was added to each well and incubated at 37° C. for 10 minutes. Following this, STOPsolution was added to each well and absorbance was measured at 450 nm using iMark™ Microplate Absorbance Reader (Bio-Rad). Graphs display relative phospho-JNK levels.

DLK = DLK (Homo sapiens (Human), UniProt Q12852); assay: KD determination, Eurofins DiscoveRx Kd-Elect; format: binding
Experimental: as §1, §2, §3

OVCAR5 cells = assay: Colony formation assay; format: cell-based
Experimental: (§4) Crystal violet assays were used to assess relative cell growth and survival after treatment with specific compounds. In general, cells were plated in triplicate in 12-well plates for 24 hours before drug treatments were added using 10% FBS media. The plates were incubated for 14 days, with the media and drug being replaced every 48 hours. The cells were then washed with phosphate-buffered saline and fixed in ice-cold methanol before being stained with 0.5% crystal violet (Sigma-Aldrich) in 25% methanol. Images were taken using a ChemiDoc MP Imaging System (Bio Rad), and for quantification, the crystal violet stain was dissolved in 33% acetic acid, incubated for 20 minutes with shaking, and read at 595 nm using iMark™ Microplate Absorbance Reader (Bio-Rad). Graphs display percent colony formation relative to the DMSO-treated control sample.

KYSE70 cells = assay: Colony formation assay; format: cell-based
Experimental: as §4

T1 sequence (O43283 whole entry): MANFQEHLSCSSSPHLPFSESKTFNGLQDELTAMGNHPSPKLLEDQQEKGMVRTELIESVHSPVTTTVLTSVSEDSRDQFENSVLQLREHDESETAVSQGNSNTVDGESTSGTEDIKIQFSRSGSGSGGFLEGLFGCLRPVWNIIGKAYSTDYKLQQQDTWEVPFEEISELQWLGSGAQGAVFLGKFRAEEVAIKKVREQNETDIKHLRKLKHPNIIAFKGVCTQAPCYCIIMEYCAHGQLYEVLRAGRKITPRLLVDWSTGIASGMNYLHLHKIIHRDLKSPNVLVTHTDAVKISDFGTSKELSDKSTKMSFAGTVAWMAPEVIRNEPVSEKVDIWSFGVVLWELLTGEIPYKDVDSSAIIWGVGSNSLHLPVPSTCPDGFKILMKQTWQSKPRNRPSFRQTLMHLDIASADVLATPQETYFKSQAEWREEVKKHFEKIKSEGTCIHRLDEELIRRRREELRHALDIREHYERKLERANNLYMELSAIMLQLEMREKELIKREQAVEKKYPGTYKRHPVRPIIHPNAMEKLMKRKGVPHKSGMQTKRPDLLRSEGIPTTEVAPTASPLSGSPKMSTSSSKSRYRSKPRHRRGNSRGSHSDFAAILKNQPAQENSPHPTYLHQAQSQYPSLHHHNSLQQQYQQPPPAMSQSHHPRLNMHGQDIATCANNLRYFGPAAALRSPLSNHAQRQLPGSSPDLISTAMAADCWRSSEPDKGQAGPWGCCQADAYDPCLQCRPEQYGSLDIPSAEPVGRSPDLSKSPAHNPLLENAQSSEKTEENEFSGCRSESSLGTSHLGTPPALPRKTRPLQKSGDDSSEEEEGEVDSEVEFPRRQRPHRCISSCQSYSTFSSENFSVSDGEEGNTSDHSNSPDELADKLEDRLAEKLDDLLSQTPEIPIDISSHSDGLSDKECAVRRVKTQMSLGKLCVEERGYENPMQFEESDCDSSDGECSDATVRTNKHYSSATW
Sequence of DLK (Q12852 whole entry): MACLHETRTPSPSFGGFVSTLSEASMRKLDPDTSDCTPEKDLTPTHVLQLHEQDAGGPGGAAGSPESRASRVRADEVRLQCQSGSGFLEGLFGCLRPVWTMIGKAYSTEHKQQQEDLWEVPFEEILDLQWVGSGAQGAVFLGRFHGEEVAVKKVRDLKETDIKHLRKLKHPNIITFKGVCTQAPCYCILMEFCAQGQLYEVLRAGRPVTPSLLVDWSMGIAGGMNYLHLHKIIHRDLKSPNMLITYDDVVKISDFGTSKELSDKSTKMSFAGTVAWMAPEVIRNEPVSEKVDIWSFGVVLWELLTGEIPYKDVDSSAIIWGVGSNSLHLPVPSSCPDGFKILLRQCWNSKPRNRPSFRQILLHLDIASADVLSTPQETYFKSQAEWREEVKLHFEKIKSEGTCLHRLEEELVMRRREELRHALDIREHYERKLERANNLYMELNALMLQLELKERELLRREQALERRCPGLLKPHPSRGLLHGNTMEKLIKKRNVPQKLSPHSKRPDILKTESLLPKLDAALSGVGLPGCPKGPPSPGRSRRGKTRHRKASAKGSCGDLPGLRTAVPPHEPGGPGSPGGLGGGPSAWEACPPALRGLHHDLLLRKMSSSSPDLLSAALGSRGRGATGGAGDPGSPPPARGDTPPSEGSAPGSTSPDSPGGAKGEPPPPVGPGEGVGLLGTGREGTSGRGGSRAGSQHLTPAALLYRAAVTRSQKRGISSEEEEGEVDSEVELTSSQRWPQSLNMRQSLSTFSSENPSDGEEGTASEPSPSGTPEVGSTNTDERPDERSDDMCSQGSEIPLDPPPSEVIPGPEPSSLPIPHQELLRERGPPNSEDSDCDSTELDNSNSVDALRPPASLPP

CC(=O)NC12CC(n3cc(-c4cnc(N)c(OC(F)(F)F)c4)nc3C(O)C(C)C)(C1)C2 (stereo not drawn) [DLK-IN-2, reference compound]
Mean permeability ([1]; PAMPA): 0.5352 10^−6 cm/sec

CC(C)C(O)c1nc(-c2cnc(N)c(OC(F)(F)F)c2)cn1C12CC(N)(C1)C2 (stereo not drawn) [DLK-IN-3, reference compound]
Mean permeability ([1]; PAMPA): 2.9021 10^−6 cm/sec

CC(C)C[C@@H](C=O)NC(=O)[C@H](CC(C)C)NC(=O)[C@H](CC(C)C)NC(=O)OCc1ccccc1 [MG132] (Cbz-Leu-Leu-Leu-aldehyde)
c-MYC levels in cells depleted of LZK (c-MYC): rescued decreases in the c-MYC levels

CC(=O)NC12CC(n3cc(-c4cnc(N)c(C(F)(F)F)n4)nc3C(O)C(C)C)(C1)C2 (stereo not drawn) [compound 44]
Kd (LZK [2]; read-out: Kd values): 0.094 µM

CC(=O)NC12CC(n3cc(-c4cnc(N)c(C#N)n4)nc3C(O)C(C)C)(C1)C2 (stereo not drawn) [compound 45]
Kd (LZK [2]; read-out: Kd values): 0.44 µM

CC(=O)NC12CC(n3cc(-c4cnc(N)cn4)nc3C(O)C(C)C)(C1)C2 (stereo not drawn) [compound 46]
Kd (LZK [2]; read-out: Kd values): > 10 µM

CC(=O)N1CCC(c2cc(Nc3cnccn3)nc(N3CCC(F)(F)C3)c2)CC1 [compound 100]
Inhibition of downstream JNK pathway activation (LZK [3]; ELISA assay): effective inhibitor | Mean permeability [1]: 16.9436 10^−6 cm/sec | PAMPA [1]: 16.94

CC(=O)N1CCC(c2cc(Nc3ccn(C)n3)nc(N3CCC(F)(F)C3)c2)CC1 [compound 101]
Kd (LZK [2]; in μM, read-out: LZK KD): > 10 µM | Kd (DLK; in μM): > 10 µM

CC(=O)N1CCC(c2cc(Nc3cc4[nH]ccc4cn3)nc(N3CCC(F)(F)C3)c2)CC1 [compound 104]
Kd (LZK [2]; in μM, read-out: LZK KD): > 10 µM | Kd (DLK; in μM): > 10 µM

CC(=O)N1CCC(c2cc(Nc3cnc(C)cn3)nc(N3CCC(F)(F)C3)c2)CC1 [compound 107]
Phospho-JNK levels (LZK [3]): particularly effective

CC(=O)N1CCC(c2cc(Nc3cncc(C)n3)nc(N3CCC(F)(F)C3)c2)CC1 [compound 108]
Kd (LZK [2]; in μM, read-out: LZK KD): > 10 µM | Kd (DLK; in μM): > 10 µM

CC(=O)N1CCC(c2cc(Nc3nccnc3C)nc(N3CCC(F)(F)C3)c2)CC1 [compound 109]
Kd (LZK [2]; in μM, read-out: LZK KD): > 10 µM | Kd (DLK; in μM): > 10 µM

CC(=O)N1CCC(c2cc(Nc3cnc4ccccc4n3)nc(N3CCC(F)(F)C3)c2)CC1 [compound 112]
Kd (LZK [2]; in μM, read-out: LZK KD): > 10 µM | Kd (DLK; in μM): > 10 µM

CC(=O)N1CCC(c2cc(Nc3cn(C)cn3)nc(N3CCC(F)(F)C3)c2)CC1 [compound 114]
Kd (LZK [2]; read-out: LZK KD): 1.5 µM | Kd (DLK): 1.2 µM

COc1cnc(Nc2cc(C3CCN(C(C)=O)CC3)cc(N3CCC(F)(F)C3)n2)cn1 [compound 115]
Kd (LZK [2]; read-out: LZK KD): 0.3 µM

CC(=O)N1CCC(c2cc(Nc3ncccn3)nc(N3CCC(F)(F)C3)c2)CC1 [compound 117]
Kd (LZK [2]; in μM, read-out: LZK KD): > 10 µM | Kd (DLK; in μM): > 10 µM

Cc1cnc(Nc2cc(C3CCN(C4CCC4)CC3)cc(N3CCC(F)(F)C3)n2)cn1 [compound 162]
dose-dependent inhibition of LZK (LZK [3]): dose-dependent inhibition

Cc1cnc(Nc2cc(C3CCN(C4COC4)CC3)cc(N3CCC(F)(F)C3)n2)cn1 [compound 163]
Kd (LZK [2]; read-out: LZK KD): 0.02 µM

Cc1cnc(Nc2cc(C3CCN(C4CCCC4)CC3)cc(N3CCC(F)(F)C3)n2)cn1 [compound 164]
dose-dependent inhibition of LZK (LZK [3]): dose-dependent inhibition | Phospho-JNK levels (LZK [3]): more effective than GNE-3511 | IC50 (LZK [3]; read-out: inhibition of LZK IC50): ~100 nM | sensitivity (colony formation) (OVCAR5 cells): sensitive

CC(=O)N1CC(c2cc(Nc3cnc(C)cn3)nc(N3CCC(F)(F)C3)c2)C1 [compound 165]
increase of Kd for DLK over the parent (107) (DLK): 6 fold

CC(=O)N1CCC(c2cc(Nc3cnc(C)cn3)nc(N(C)CC3CC3)c2)CC1 [compound 186]
Kd (LZK [2]; read-out: LZK KD): 0.09 µM

CC(=O)N1CCC(c2cc(Nc3cnc(C)cn3)nc(N3CCOCC3)c2)CC1 [compound 191]
Kd (LZK [2]; read-out: LZK KD): 0.23 µM | Kd (DLK): 0.17 µM

CC(=O)N1CCC(c2cc(Nc3cnc(C)cn3)nc(N3CCC(F)(F)CC3)c2)CC1 [compound 192]
Kd (LZK [2]; read-out: LZK KD): 0.065 µM | Kd (DLK): 0.12 µM

CC(=O)N1CCC(c2cc(Nc3cnc(C)cn3)nc(N3CCC4(CC4)C3)c2)CC1 [compound 201]
Kd (DLK): 0.02 µM

CC(=O)N1CCC(c2cc(Nc3cnc(C)cn3)nc(N3CC4CC(C4)C3)c2)CC1 [compound 204]
Kd (LZK [2]; read-out: LZK KD): 0.008 µM

CC(=O)N1CCC(c2cc(Nc3cnc(C)cn3)nc(N3CC4CC(C3)C4O)c2)CC1 (stereo not drawn) [compound 205]
Kd (DLK): 0.1 µM

CC(=O)N1CCC(c2cc(Nc3cnc(C)cn3)nc(N3CC4CCC4C3)c2)CC1 (stereo not drawn) [compound 207]
selectivity for LZK over DLK (LZK [2]; from KD values): 180 fold | Kd (LZK [2]; read-out: LZK KD): 0.00097 µM | Kd (DLK): 0.18 µM

CC(=O)N1CCC(c2cc(Nc3cnc(C)cn3)nc(N3CCC4(CC3)CC4)c2)CC1 [compound 208]
Kd (DLK): 0.1 µM

c1nc(C2CC2)cnc1Nc1cc(C2CCN(CC3CC3)CC2)cc(N2CC3CC3C2)n1 (stereo not drawn) [compound 216]
Kd (DLK): 0.002 µM | sensitivity (colony formation) (OVCAR5 cells): exquisitely sensitive | sensitivity (colony formation) (KYSE70 cells): exquisitely sensitive

CC(=O)N1CC(c2cc(Nc3cnc(C4CC4)cn3)nc(N3CC4CC4C3)c2)C1 (stereo not drawn) [compound 218]
Kd (DLK): 0.03 µM

c1nc(C2CC2)cnc1Nc1cc(C2CN(CC3CC3)C2)cc(N2CC3CC3C2)n1 (stereo not drawn) [compound 219]
sensitivity (colony formation) (OVCAR5 cells): exquisitely sensitive | sensitivity (colony formation) (KYSE70 cells): exquisitely sensitive

c1nc(C2CC2)cnc1Nc1cc(C2CN(CC3CC3)C2)cc(N2CC3CCC3C2)n1 (stereo not drawn) [compound 228]
Kd (LZK [2]; read-out: LZK KD): 0.007 µM
